Experimental data as given in ChEMBL document CHEMBL6087397, “H2S-releasing oridonin derivatives with improved antitumor activity by inhibiting the PI3K/AKT pathway” (Bioorg Med Chem, 2024).
Calls of active or inactive are those of the source. No cut-off for these calls is given here.

Assays:
[1] = test system: 4T1; assay: Antitumor activity against mouse 4T1 cells xenografted in female BALB/c mouse assessed as tumor inhibition rate at 10 mg/kg, ip administered every 2 days relative to control; assay type: functional; settings: 4T1, 48 h, read-out: TGI
[2] = test system: MIA PaCa-2; assay: Inhibition of PI3K expression in human MIA PaCa-2 cells at 1.25 to 5.0 uM incubated for 48 hrs by Western blotting analysis; assay type: functional, cell-based; settings: dose 1.25-5 µM
[3] = test system: MIA PaCa-2; assay: Induction of apoptosis in human MIA PaCa-2 cells assessed as increase in nuclear fragmentation at 2.5 uM incubated for 48 hrs by Hoechst 33342 staining based fluorescence microscopic analysis; assay type: functional, cell-based
[4] = Toxicity in female BALB/c mouse xenografted with mouse 4T1 cells assessed as morphological change in lung at 10 mg/kg, ip administered every 2 days by H and E staining based analysis; assay type: organism-based; settings: in vivo, 48 h
[5] = Toxicity in female BALB/c mouse xenografted with mouse 4T1 cells assessed as morphological change in heart at 10 mg/kg, ip administered every 2 days by H and E staining based analysis; assay type: organism-based; settings: in vivo, 48 h
[6] = Toxicity in female BALB/c mouse xenografted with mouse 4T1 cells assessed as morphological change in liver at 10 mg/kg, ip administered every 2 days by H and E staining based analysis; assay type: organism-based; settings: in vivo, 48 h
[7] = test system: MIA PaCa-2; assay: Induction of apoptosis in human MIA PaCa-2 cells assessed as early apoptotic cells at 10 uM incubated for 48 hrs by Annexin V-FITC/PI staining based flow cytometric analysis (reference value: 7.3%); assay type: functional
[8] = test system: MCF7; assay: Induction of mitochondrial apoptosis pathway in human MCF7 cells assessed as downregulation of pro-caspase-9 expression at 1.25 to 5.0 uM incubated for 48 hrs by Western blotting analysis; assay type: functional, cell-based; settings: dose 1.25-5 µM
[9] = test system: MIA PaCa-2; assay: Induction of apoptosis in human MIA PaCa-2 cells assessed as upregulation of Cyt-C expression at 1.25 to 5.0 uM incubated for 48 hrs by Western blotting analysis; assay type: functional, cell-based; settings: dose 1.25-5 µM
[10] = test system: MCF7; assay: Induction of apoptosis in human MCF7 cells assessed as late apoptotic cells at 20 uM incubated for 48 hrs by Annexin V-FITC/PI staining based flow cytometric analysis (reference value: 20.2%); assay type: functional
[11] = test system: MIA PaCa-2; assay: Inhibition of AKT expression in human MIA PaCa-2 cells at 1.25 to 5.0 uM incubated for 48 hrs by Western blotting analysis; assay type: functional, cell-based; settings: dose 1.25-5 µM
[12] = test system: MCF7; assay: Induction of apoptosis in human MCF7 cells assessed as increase in cleaved PARP level at 1.25 to 5.0 uM incubated for 48 hrs by Western blotting analysis; assay type: functional, cell-based; settings: dose 1.25-5 µM
[13] = test system: MCF7; assay: Induction of mitochondrial dysfunction in human MCF7 cells assessed as decrease in ATP level incubated for 48 hrs by ATP assay kit; assay type: functional, cell-based; settings: dose 2.5-10 µM
[14] = test system: MCF7; assay: Inhibition of cell invasion in human MCF7 cells assessed as decrease in number of invading cells at 0.5 to 1.0 uM incubated for 48 hrs by crystal violet staining based transwell microscopic analysis; assay type: functional; settings: dose 0.5-1 µM

With C=C1C(=O)[C@]23[C@H](OC(=O)c4ccc(N=C=S)cc4)[C@H]1CC[C@H]2[C@@]12CO[C@]3(O)[C@@H](O)[C@@H]1C(C)(C)CC[C@@H]2O the inhibition in vivo at 10 mg/kg [1] was 34.3%, the inhibition [2] was “Active” and the Activity [3] was “Active”. For the same compound, the Activity [4] was “Non-toxic”, the Activity [5] was “Non-toxic” and the Activity [6] was “Non-toxic”. The Activity [7] was 56.8%, the Activity [8] was “Active” and the Activity [9] was “Active”. For the same compound, the Activity [10] was 57%, the inhibition [11] was “Active” and the Activity [12] was “Active”. For the same compound, the Activity [13] was “Dose-dependent-effect” and the inhibition [14] was “Active”.
